Values after ≈ are worked out from the molar mass of the structure shown. Like-named read-outs stand apart in the source and are kept apart here.
What was measured:
Format in all cases: cell-based
[1] = test system: S. pneumoniae 2392; experiment: MIC against S. pneumoniae 2392; conditions: Table 2, S. pneumoniae 2392, Pen R
Text: (§1) Without limitation, the present cephem compounds alone, or in combination with one or more β-lactamase inhibitors, may provide improved antibacterial efficacy, particularly in antibiotic-resistant bacterial strains. It is believed that the present compounds may be structurally different from known compounds and, as a result, may be more basic in nature. It is an advantage that the present compounds may extend the spectrum of effective bacterial compounds, particularly against previously-resistant bacteria (e.g. ESKAPE organisms), and/or gram negative bacteria, without significant side effects. In a preferred embodiment, the present cephem compound may comprise reference compound ceftazidime, which may be used alone, or in combination with one or more β-lactamase inhibitors, such as NXL-104. As shown, the foregoing composition was tested for minimum inhibitory concentration (MIC, μg/mL) against bacteria listed in Tables 2-3.

[2] = test system: S. pneumoniae 2404; experiment: MIC against S. pneumoniae 2404; conditions: Table 2, S. pneumoniae 2404, Pen S
Text: as §1

[3] = test system: K. pneumoniae 4109; experiment: MIC against K. pneumoniae 4109; conditions: Table 2, K. pneumoniae 4109, SHV-1, SHV-12
Text: as §1

[4] = test system: K. baumanii 2579; experiment: MIC against K. baumanii 2579; conditions: Table 2, K. baumanii 2579, OXA-25
Text: as §1

[5] = test system: K. pneumoniae 2690; experiment: MIC against K. pneumoniae 2690; conditions: Table 3, K. pneumoniae 2690, KPC-2
Protocol: (§2) As shown, the foregoing composition was tested for minimum inhibitory concentration (MIC, μg/mL) against bacteria listed in Tables 2-3.

[6] = test system: S. pneumoniae ATCC 700673; experiment: MIC against S. pneumoniae ATCC 700673; conditions: Table 2, S. pneumoniae ATCC 700673, Pen R
Text: as §1

[7] = test system: S. aureus 3132; experiment: MIC against S. aureus 3132; conditions: Table 2, S. aureus 3132, MSSA
Text: as §1

[8] = test system: E. cloacae 552; experiment: MIC against E. cloacae 552; conditions: Table 2, E. cloacae 552, Caz S, IMP S
Text: as §1

[9] = test system: K. pneumoniae 2711; experiment: MIC against K. pneumoniae 2711; conditions: Table 3, K. pneumoniae 2711, KPC-3, VIM-1
Protocol: as §2

[10] = test system: E. coli 4103; experiment: MIC against E. coli 4103; conditions: Table 3, E. coli 4103, KPC-2, TEM-1, CMY-type
Protocol: as §2

[11] = test system: C. freundii 2003; experiment: MIC against C. freundii 2003; conditions: Table 2, C. freundii 2003, Caz R, IMP S
Text: as §1

[12] = test system: P. aeruginosa 2686; experiment: MIC against P. aeruginosa 2686; conditions: Table 3, P. aeruginosa 2686, KPC-2
Protocol: as §2

[13] = test system: S. pneumoniae 2389; experiment: MIC against S. pneumoniae 2389; conditions: Table 2, S. pneumoniae 2389, Pen R
Text: as §1

[14] = test system: E. cloacae 551; experiment: MIC against E. cloacae 551; conditions: Table 2, E. cloacae 551, Caz R, IMP S
Text: as §1

[15] = Streptococcus pneumoniae, alone, read-out: MIC
[16] = Klebsiella pneumoniae, alone, read-out: MIC
[17] = Streptococcus pneumoniae, ATCC700673, alone, read-out: MIC
[18] = Enterobacter cloacae, alone, read-out: MIC
[19] = Escherichia coli, alone, read-out: MIC
[20] = Citrobacter freundii, alone, read-out: MIC
[21] = Pseudomonas aeruginosa, alone, read-out: MIC
[22] = Staphylococcus aureus, alone, read-out: MIC

SMILES	MIC ([1]; in combination with NXL-104) [µg/mL]	MIC ([2]; in combination with NXL-104) [µg/mL]	MIC ([3]; in combination with NXL-104) [µg/mL]	MIC ([4]; in combination with NXL-104) [µg/mL]	MIC ([5]; in combination with NXL-104)	MIC ([6]; in combination with NXL-104) [µg/mL]	MIC ([7]; in combination with NXL-104) [µg/mL]	MIC ([8]; in combination with NXL-104) [µg/mL]	MIC ([9]; in combination with NXL-104) [µg/mL]	MIC ([10]; in combination with NXL-104) [µg/mL]	MIC ([11]; in combination with NXL-104) [µg/mL]	MIC ([12]; in combination with NXL-104) [µg/mL]	MIC ([13]; in combination with NXL-104) [µg/mL]	MIC ([14]; in combination with NXL-104) [µg/mL]	MIC [1, 15] [µg/mL]	MIC [2, 15] [µg/mL]	MIC [3, 16] [µg/mL]	MIC ([4]; alone, read-out: MIC) [µg/mL]	MIC [5, 16] [µg/mL]	MIC [6, 17] [µg/mL]	also measured
CC(C)(O/N=C(\C(=O)N[C@@H]1C(=O)N2C(C(=O)[O-])=C(C[n+]3ccccc3)CS[C@H]12)c1csc(N)n1)C(=O)O [CAZ, ceftazidime, reference compound]	16.00	32.00	0.50	>32	4 µg/mL	8.00	8.00	0.25	2	16	1.00	16	16.00	4.00	–	–	–	–	–	–	MIC ([1]; alone): 16.00 µg/mL; MIC ([2]; alone): 32.00 µg/mL; MIC ([3]; alone): 2.00 µg/mL; MIC ([4]; alone): >32 µg/mL; MIC ([5]; alone): >32 µg/mL; MIC ([6]; alone): 16.00 µg/mL; MIC ([7]; alone): 8.00 µg/mL; MIC ([8]; alone): 0.50 µg/mL; MIC ([9]; alone): >32 µg/mL; MIC ([10]; alone): >32 µg/mL; MIC ([11]; alone): 4.00 µg/mL; MIC ([12]; alone): >32 µg/mL; MIC ([13]; alone): 16.00 µg/mL; MIC ([14]; alone): 16.00 µg/mL
CC(C)(O/N=C(\C(=O)N[C@@H]1C(=O)N2C(C(=O)[O-])=C(C[n+]3ccc4n3CCN4Cc3ccc(C(=N)N)cc3)CS[C@H]12)c1csc(N)n1)C(=O)O [Example 2, (6R,7R)-7-{[(2Z)-2-(2-Amino-1,3-thiazol-4-yl)-2-{[(2-carboxypropan-2-yl)oxy]imino}acetyl]amino}-3-{[1-(4-carbamimidoylbenzyl)-2,3-dihydro-1H-imidazo[1,2-b]pyrazol-5-ium-5-yl]methyl}-8-oxo-5-thia-1-azabicyclo[4.2.0]oct-2-ene-2-carboxylate]	8.00	0.25	0.12	32.00	2 µg/mL	8.00	2.00	0.12	0.5	8	0.50	16	8.00	1.00	8	0.25	0.5	> 32	32 (≈ 45.1 µM)	8	MIC [7, 22]: 2 µg/mL; MIC [8, 18]: 0.12 µg/mL; MIC [9, 16]: 4 µg/mL (≈ 5.64 µM); MIC [10, 19]: > 32 µg/mL; MIC [11, 20]: 2 µg/mL; MIC [12, 21]: > 32 µg/mL; MIC [13, 15]: 8 µg/mL; MIC [14, 18]: 8 µg/mL
CC(C)(O/N=C(\C(=O)N[C@@H]1C(=O)N2C(C(=O)[O-])=C(C[n+]3ccc4c(ccn4Cc4cc(C(=N)N)cs4)c3)CS[C@H]12)c1csc(N)n1)C(=O)O [Example 5, (6R,7R)-7-{[(2Z)-2-(2-Amino-1,3-thiazol-4-yl)-2-{[(2-carboxypropan-2-yl)oxy]imino}acetyl]amino}-3-({1-[(4-carbamimidoylthiophen-2-yl)methyl]-1H-pyrrolo[3,2-c]pyridin-5-ium-5-yl}methyl)-8-oxo-5-thia-1-azabicyclo[4.2.0]oct-2-ene-2-carboxylate]	1.00	≤0.06	0.12	8.00	.5 µg/mL	2.00	2.00	≤0.06	0.25	4	0.25	8	1.00	1.00	2	≤ 0.06	8	> 32	8 (≈ 11.1 µM)	2	MIC [7, 22]: 2 µg/mL; MIC [8, 18]: 0.12 µg/mL; MIC [9, 16]: 2 µg/mL (≈ 2.76 µM); MIC [10, 19]: > 32 µg/mL; MIC [11, 20]: 8 µg/mL; MIC [12, 21]: 32 µg/mL (≈ 44.2 µM); MIC [13, 15]: 2 µg/mL; MIC [14, 18]: 32 µg/mL

Continued by falling MIC [1, 15], values first:

MIC ([1]; in combination with NXL-104) [µg/mL]	MIC ([2]; in combination with NXL-104) [µg/mL]	MIC ([3]; in combination with NXL-104) [µg/mL]	MIC ([4]; in combination with NXL-104) [µg/mL]	MIC ([5]; in combination with NXL-104)	MIC ([6]; in combination with NXL-104) [µg/mL]	MIC ([7]; in combination with NXL-104) [µg/mL]	MIC ([8]; in combination with NXL-104) [µg/mL]	MIC ([9]; in combination with NXL-104) [µg/mL]	MIC ([10]; in combination with NXL-104) [µg/mL]	MIC ([11]; in combination with NXL-104) [µg/mL]	MIC ([12]; in combination with NXL-104) [µg/mL]	MIC ([13]; in combination with NXL-104) [µg/mL]	MIC ([14]; in combination with NXL-104) [µg/mL]	MIC [1, 15] [µg/mL]	MIC [2, 15] [µg/mL]	MIC [3, 16] [µg/mL]	MIC ([4]; alone, read-out: MIC) [µg/mL]	MIC [5, 16] [µg/mL]	MIC [6, 17] [µg/mL]	SMILES	also measured
–	–	–	–	–	–	–	–	–	–	–	–	–	–	2	0.25	2	32	32 (≈ 44.6 µM)	2	CC(C)(O/N=C(\C(=O)N[C@@H]1C(=O)N2C(C(=O)[O-])=C(C[n+]3ccc4c(ccn4Cc4ccc(C(=N)N)cc4)c3)CS[C@H]12)c1csc(N)n1)C(=O)O [Ex-1, (6R,7R)-7-{[(2Z)-2-(2-Amino-1,3-thiazol-4-yl)-2-{[(2-carboxypropan-2-yl)oxy]imino}acetyl]-amino}-3-{[1-(4-carbamimidoylbenzyl)-1H-pyrrolo[3,2-c]pyridin-5-ium-5-yl]methyl}-8-oxo-5-thia-1-azabicyclo[4.2.0]oct-2-ene-2-carboxylate]	MIC [8, 18]: 0.12 µg/mL; MIC [9, 16]: 4 µg/mL (≈ 5.57 µM); MIC [10, 19]: > 32 µg/mL; MIC [11, 20]: 8 µg/mL; MIC [12, 21]: > 32 µg/mL; MIC [13, 15]: 4 µg/mL; MIC [14, 18]: 32 µg/mL
2.00	≤0.06	0.12	16.00	1 µg/mL	2.00	4.00	0.25	0.5	4	0.50	8	2.00	1.00	2	≤ 0.06	8	> 32	16 (≈ 22.6 µM)	2	CC(C)(O/N=C(\C(=O)N[C@@H]1C(=O)N2C(C(=O)[O-])=C(C[n+]3ccc4c(ccn4Cc4cc(C(=N)N)co4)c3)CS[C@H]12)c1csc(N)n1)C(=O)O [Example 6, (6R,7R)-7-{[(2Z)-2-(2-Amino-1,3-thiazol-4-yl)-2-{[(2-carboxypropan-2-yl)oxy]imino}acetyl]amino}-3-({1-[(4-carbamimidoylfuran-2-yl)methyl]-1H-pyrrolo[3,2-c]pyridin-5-ium-5-yl}methyl)-8-oxo-5-thia-1-azabicyclo[4.2.0]oct-2-ene-2-carboxylate]	MIC [7, 22]: 4 µg/mL; MIC [8, 18]: 0.12 µg/mL; MIC [9, 16]: 4 µg/mL (≈ 5.65 µM); MIC [10, 19]: > 32 µg/mL; MIC [11, 20]: 4 µg/mL; MIC [12, 21]: 32 µg/mL (≈ 45.2 µM); MIC [13, 15]: 2 µg/mL; MIC [14, 18]: 16 µg/mL

From patent publication USRE48097E1, “Cephem compounds, their production and use” (priority 2015, dated 2020)
